# Data taken from PubChem BioAssay AID1963845 (Molecular Pharmacology Branch, DTP, NCI, 2024).
# Test system: 429239-143-T-J1-PDC complex spheroid viability
# Assay: Anticancer human tumor 429239-143-T-J1-PDC patient-derived small cell lung carcinoma cell line growth inhibition [POLQ]
# Details: for IC50: curve of first compound; for viability, T/C: stronger effect = lower value
# Procedure, shortened: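 PDC + HUVEC + MSC complex spheroids; POLQ inhibitors ± partner drugs; top conc. at/near clinical Cmax, else 10 microM (SN-38 1 microM), half-log dilutions; 37 degrees C, 5% CO2.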
# 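Also: luminescence signal used as surrogate measure of viable cells; spheroids exposed to compounds for seven days before readout.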
# 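For viability, T/C in this document: 100% = DMSO vehicle control viability as luminescence relative to vehicle.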
smiles,measurement,setting,value
CC(=O)O[C@H]1C(=O)[C@@]2(C)[C@H]([C@H](OC(=O)c3ccccc3)[C@]3(O)C[C@H](OC(=O)[C@H](O)[C@@H](NC(=O)c4ccccc4)c4ccccc4)C(C)=C1C3(C)C)[C@]1(OC(C)=O)CO[C@@H]1C[C@@H]2O + Nc1ccc(C#CCN(C(=O)Cc2ncc(C(F)(F)F)cc2C(F)(F)F)c2ccc(F)cc2)nn1,IC50,second compound 0.0316 µM,14.4 nM
same,IC50,second compound 0.1 µM,14.4 nM
same,IC50,second compound 0.316 µM,14 nM
same,IC50,second compound 1 µM,15.3 nM
same,IC50,second compound 3.16 µM,14.2 nM
same,IC50,second compound 10 µM,13.2 nM
same,"viability, T/C","second compound 0.0316 µM, first compound 0.00949 µM",65.6%
same,"viability, T/C","second compound 0.0316 µM, first compound 0.03 µM",20.2%
same,"viability, T/C","second compound 0.0316 µM, first compound 0.0949 µM",16%
same,"viability, T/C","second compound 0.0316 µM, first compound 0.3 µM",16.2%
same,"viability, T/C","second compound 0.0316 µM, first compound 0.949 µM",26.6%
same,"viability, T/C","second compound 0.0316 µM, first compound 3 µM",32.6%
same,"viability, T/C","second compound 0.1 µM, first compound 0.00949 µM",67%
same,"viability, T/C","second compound 0.1 µM, first compound 0.03 µM",18.6%
same,"viability, T/C","second compound 0.1 µM, first compound 0.0949 µM",15.9%
same,"viability, T/C","second compound 0.1 µM, first compound 0.3 µM",17.1%
same,"viability, T/C","second compound 0.1 µM, first compound 0.949 µM",22.2%
same,"viability, T/C","second compound 0.1 µM, first compound 3 µM",24.6%
same,"viability, T/C","second compound 0.316 µM, first compound 0.00949 µM",64.2%
same,"viability, T/C","second compound 0.316 µM, first compound 0.03 µM",22.6%
same,"viability, T/C","second compound 0.316 µM, first compound 0.0949 µM",16%
same,"viability, T/C","second compound 0.316 µM, first compound 0.3 µM",17.1%
same,"viability, T/C","second compound 0.316 µM, first compound 0.949 µM",19.8%
same,"viability, T/C","second compound 0.316 µM, first compound 3 µM",26.2%
same,"viability, T/C","second compound 1 µM, first compound 0.00949 µM",71%
same,"viability, T/C","second compound 1 µM, first compound 0.03 µM",18.2%
same,"viability, T/C","second compound 1 µM, first compound 0.0949 µM",14.8%
same,"viability, T/C","second compound 1 µM, first compound 0.3 µM",17.5%
same,"viability, T/C","second compound 1 µM, first compound 0.949 µM",25.2%
same,"viability, T/C","second compound 1 µM, first compound 3 µM",24%
same,"viability, T/C","second compound 3.16 µM, first compound 0.00949 µM",67%
same,"viability, T/C","second compound 3.16 µM, first compound 0.03 µM",16.2%
same,"viability, T/C","second compound 3.16 µM, first compound 0.0949 µM",15.4%
same,"viability, T/C","second compound 3.16 µM, first compound 0.3 µM",15.9%
same,"viability, T/C","second compound 3.16 µM, first compound 0.949 µM",18.5%
same,"viability, T/C","second compound 3.16 µM, first compound 3 µM",26.7%
same,"viability, T/C","second compound 10 µM, first compound 0.00949 µM",64.3%
same,"viability, T/C","second compound 10 µM, first compound 0.03 µM",14.5%
same,"viability, T/C","second compound 10 µM, first compound 0.0949 µM",13.4%
same,"viability, T/C","second compound 10 µM, first compound 0.3 µM",14.3%
same,"viability, T/C","second compound 10 µM, first compound 0.949 µM",15.9%
same,"viability, T/C","second compound 10 µM, first compound 3 µM",18.5%
C#Cc1c(F)ccc2cc(O)cc(-c3ncc4c(N5CC6CCC(C5)N6)nc(OCC56CCCN5CC(F)C6)nc4c3F)c12 (centres undefined) + Cc1cccc(N(C)C(=O)C2C(O)CCN2c2nc(C)cc(C(F)(F)F)c2C#N)c1,IC50,second compound 0.0316 µM,> 10000 nM
same,IC50,second compound 0.1 µM,> 10000 nM
same,IC50,second compound 0.316 µM,> 10000 nM
same,IC50,second compound 1 µM,> 10000 nM
same,IC50,second compound 3.16 µM,> 10000 nM
same,IC50,second compound 10 µM,> 10000 nM
same,"viability, T/C","second compound 0.0316 µM, first compound 0.0316 µM",91%
same,"viability, T/C","second compound 0.0316 µM, first compound 0.1 µM",92.4%
same,"viability, T/C","second compound 0.0316 µM, first compound 0.316 µM",97.1%
same,"viability, T/C","second compound 0.0316 µM, first compound 1 µM",98.9%
same,"viability, T/C","second compound 0.0316 µM, first compound 3.16 µM",98.9%
same,"viability, T/C","second compound 0.0316 µM, first compound 10 µM",100%
same,"viability, T/C","second compound 0.1 µM, first compound 0.0316 µM",117%
same,"viability, T/C","second compound 0.1 µM, first compound 0.1 µM",110%
same,"viability, T/C","second compound 0.1 µM, first compound 0.316 µM",89.7%
same,"viability, T/C","second compound 0.1 µM, first compound 1 µM",101%
same,"viability, T/C","second compound 0.1 µM, first compound 3.16 µM",91.1%
same,"viability, T/C","second compound 0.1 µM, first compound 10 µM",103%
same,"viability, T/C","second compound 0.316 µM, first compound 0.0316 µM",99.6%
same,"viability, T/C","second compound 0.316 µM, first compound 0.1 µM",100%
same,"viability, T/C","second compound 0.316 µM, first compound 0.316 µM",98.5%
same,"viability, T/C","second compound 0.316 µM, first compound 1 µM",93.8%
same,"viability, T/C","second compound 0.316 µM, first compound 3.16 µM",89.2%
same,"viability, T/C","second compound 0.316 µM, first compound 10 µM",93.5%
same,"viability, T/C","second compound 1 µM, first compound 0.0316 µM",101%
same,"viability, T/C","second compound 1 µM, first compound 0.1 µM",108%
same,"viability, T/C","second compound 1 µM, first compound 0.316 µM",105%
same,"viability, T/C","second compound 1 µM, first compound 1 µM",92.5%
same,"viability, T/C","second compound 1 µM, first compound 3.16 µM",89.9%
same,"viability, T/C","second compound 1 µM, first compound 10 µM",92.5%
same,"viability, T/C","second compound 3.16 µM, first compound 0.0316 µM",90.2%
same,"viability, T/C","second compound 3.16 µM, first compound 0.1 µM",88.4%
same,"viability, T/C","second compound 3.16 µM, first compound 0.316 µM",106%
same,"viability, T/C","second compound 3.16 µM, first compound 1 µM",86.3%
same,"viability, T/C","second compound 3.16 µM, first compound 3.16 µM",95.4%
same,"viability, T/C","second compound 3.16 µM, first compound 10 µM",92%
same,"viability, T/C","second compound 10 µM, first compound 0.0316 µM",100%
same,"viability, T/C","second compound 10 µM, first compound 0.1 µM",78.3%
same,"viability, T/C","second compound 10 µM, first compound 0.316 µM",101%
same,"viability, T/C","second compound 10 µM, first compound 1 µM",86%
same,"viability, T/C","second compound 10 µM, first compound 3.16 µM",103%
same,"viability, T/C","second compound 10 µM, first compound 10 µM",100%
